Key:
[1] = system: Sal4; test: BLI-Sal4 association: concentration dependence and stability; type: binding; conditions: FIG. 6, BLI-Sal4
[2] = system: Caco-2 colonic cells co-cultured with HT29-MTX E12 cells; test: Bacterial adherence to colonocyte co-cultures; type: cell-based, human
Description: Mammalian cell culture binding assays: Caco-2 colonic cells were co-cultured with HT29-MTX E12 cells at a ratio of 3:1 and seeded at a density of 5×10^4 cells/well in 24-well plates, maintained as described above. On day 1 post-confluence, medium was removed, the cells washed once with PBS, and DMEM without FBS or antibiotics was added prior to binding assay. Bacteria were prepared as described above, with or without SIgA and resuspended in PBS at 1×10^7 CFU/mL. 4×10^5 CFU were added to the colonocytes and the plate was centrifuged at 600×g for 5 min to ensure bacteria association with the cells. After 2 h of incubation at 37° C. in 5% CO2, medium was removed and saved for cytokine analysis. Cells were washed once with PBS, and to one set of replicates, cells were lysed with 0.5% Triton X-100 and serial dilutions of the cell suspensions were plated on MRS and incubated anaerobically at 37° C. overnight to test viability. To a second set of replicates, TRIzol (15596018; Life Technologies) was added directly to washed cells for RNA extraction.

[3] = Protection from simulated gastric digestion in vitro (pepsin, pancreatin): viability by CFU plating and live/dead flow cytometry; conditions: for slope of regression plot of viability with SIgA association: post-digestion; for Slope (CFU/% SIgA): regression of viable CFU post-digestion on SIgA association
Description: Flow cytometry and immunofluorescence: To measure binding cells were fixed using 4% w/v paraformaldehyde for 30 min, washed with PBS, then incubated with 1% bovine serum albumin (BSA) blocking buffer for 1 h. Cells were stained with 1/100 dilution SYTOT™ 9 (S34854, ThermoFisher) for live cells and goat anti-human IgA conjugated to Alexa 647 fluorophore using 1/50 dilution in 1% BSA (ab96998, Abcam). For flow cytometry, all samples were acquired and analyzed on a FACScan flow cytometer (BD Biosciences, Mountain View, Calif.) using the CellQuest software program. For live/dead analyses following in vitro digestion, cells were stained with SYTOT™ 9 (1/100 dilution) for live cells and propidium iodine (1/1000 dilution) for dead cells or cells with compromised membranes.
Protection from digestion using an in vitro model. To determine the extent to which the SIgA-glycan-mediated-bacterial complexes that included the Ig-bound secretory component (SC) where able to protect bacteria and SIgA from proteolytic degradation, an in vitro model was used. Simulated gastric digestion was performed by resuspending bacteria in 200 ul of 0.1% porcine pepsin (Sigma—Aldrich, St. Louis, Mo.) in PBS at pH 4. Samples were placed in an incubating shaker (New Brunswick Scientific, Edison, N.J.) at 140 rpm at 37° C. for 15 min. Cells were then pelleted and resuspended in 200 ul of 0.04% pancreatin (Sigma— Aldrich) in PBS pH 7, and the samples placed in the incubator shaker at 140 rpm at 37° C. for 5 min. Bacteria were pelleted and washed twice with PBS to remove residual enzymes, then evaluated for viability through CFU serial dilution and spot plating, and with live/dead flow cytometry analysis.

Bifidobacterium longum ssp. infantis ATCC 15697
SIgA association with BLI: concentration dependence [1]: concentration dependent | SIgA association with BLI: stability over time ([1]; 6 hour): stable over a 6 hour time interval | increased adherence to the co-culture with the addition of SIgA ([2]; first grown on LNnT): 7.5e5 CFU | increased adherence to the co-culture with the addition of SIgA ([2]; first grown on glucose): 3.5e6 CFU | slope of regression plot of adherent bacteria with SIgA association ([2]; lactose-grown): 4.6e3 adherent CFU per % population associated with SIgA | Slope (adherent CFU/% SIgA association) ([2]; substrate 2'FL): 1552.0 adherent CFU/% SIgA associatio | Slope (adherent CFU/% SIgA association) ([2]; substrate LNnT): 3606.0 adherent CFU/% SIgA associatio | Slope (adherent CFU/% SIgA association) ([2]; substrate all (no lac)): 4887.0 adherent CFU/% SIgA associatio | Slope (adherent CFU/% SIgA association) ([2]; substrate glucose): 6882.0 adherent CFU/% SIgA associatio | Slope (adherent CFU/% SIgA association) ([2]; substrate lactose): −2230.0 adherent CFU/% SIgA associatio | viable bacteria post-digestion ([3]; grown on LNnT, 1000 μg SIgA/1e7 CFU): 1.3e5 CFU | viable bacteria post-digestion ([3]; grown on LNnT, no SIgA): 1.2e4 CFU | viable bacteria post-digestion ([3]; grown on glucose, 1000 μg SIgA/1e7 CFU): 8.9e5 CFU | viable bacteria post-digestion ([3]; grown on glucose, no SIgA): 1e5 CFU | slope of regression plot of viability with SIgA association ([3]; grown on LNnT): 1.2e3 CFU per % population SIgA association | slope of regression plot of viability with SIgA association ([3]; grown on glucose): 8.2e4 CFU per % population SIgA association | Slope (CFU/% SIgA) ([3]; substrate 2′FL): 410.1 CFU/% SIgA | Slope (CFU/% SIgA) ([3]; substrate LNnT): 1214 CFU/% SIgA | Slope (CFU/% SIgA) ([3]; substrate glucose): 8970 CFU/% SIgA | Slope (CFU/% SIgA) ([3]; substrate lactose): 76377 CFU/% SIgA

— patent publication US20220280581A1, “BENEFICIAL BACTERIA AND SECRETORY IMMUNOGLOBULIN A” (priority 2019, published 2022)
